Measurements from patent EP0012271A1, “Prednisone derivatives, process for their production and pharmaceutical preparations containing these compounds” (SCHERING AKTIENGESELLSCHAFT, priority 1978, dated 1980).

Assays:
Pfotenödems = test: Undesired systemic activity: Mycobacterium butyricum-induced paw oedema in rats, oral administration; assay type: in vivo, SPF-Ratten; conditions: Rattus norvegicus, dose giving 50% reduction of paw oedema volume, measured 24 h after dosing, higher value = less undesired systemic effect, read-out: Systemische Wirksamkeit ED50
Text: (§1) Die Prednison-Derivate der allgemeinen Formel I gemäß Anspruch 1 zeichnen sich gegenüber dem in handelsüblichen pharmazeutischen Präparate befindlichen, strukturanalogen Kortikoid 17α-Butyryloxy-21-chlor-9α-fluor-16β-methyl- l,4-pregnadien-3,11,20-trion durch eine günstigere Dissoziation zwischen erwünschter topischer antiinflammatorischer Wirksamkeit und unerwünschter systemischer Nebenwirkung aus, wie folgende pharmakologische Untersuchungen zeigen: • a) Ermittlung der topischen antiinflammatorischen Wirksamkeit: Die Untersuchungen werden an je 8 gesunden Probanden beider Geschlechter durchgeführt, die in den letzten zwei Wochen keine lokale Corticosteroidbehandlung erhalten hatten. Nach dem Entfernen des Stratum corneum bis zum Stratum lucidum auf dem Rücken der Probanden (20 - 40 Tesafilm-Abrisse) werden je o,l g der Zubereitung auf 4 cm^2 große Felder ohne Okklusionsverband aufgetragen. Um zu vermeiden, daß die gleiche Zubereitung jeweils auf identische Hautreale appliziert wird, wird in rotierender Folge aufgetragen. […]

Vasokonstriktion = test: Topical anti-inflammatory activity: vasoconstriction test on tape-stripped back skin of healthy volunteers, visual grading 1-5 compared with DFV; assay type: in vivo, gesunden Probanden; conditions: Konz. der Salbe, mean of 8 volunteers, positive = better than DFV, negative = worse
Text: as §1

CCCC(=O)O[C@]1(C(=O)CCl)CC[C@H]2[C@@H]3CCC4=CC(=O)C=C[C@]4(C)[C@@]3(F)C(=O)C[C@@]21C [Nr. 3, 17α-Butyryloxy-21-chlor-9α-fluor-1,4-pregnadien-3,11,20-trion]
ED50 (Pfotenödems): 30 mg/kg
Topische Wirksamkeit, Wirkungsgrad DFV - Wirkungsgrad Substanz (Vasokonstriktion; Beobachtungszeit 4 h): -0,1
Topische Wirksamkeit, Wirkungsgrad DFV - Wirkungsgrad Substanz (Vasokonstriktion; Beobachtungszeit 8 h): 0,0
